From US8759363B2, “Quinazoline-based T cell proliferation inhibitors” (Yissum Research Development Company of the Hebrew …, priority 2010, dated 2014)
Read-outs that look alike come from different tables or passages of the source.

Experiments:
Jurkat cells = experiment: Jurkat cell proliferation, BrdU incorporation; assay type: cell-based, human; conditions: BrdU uptake
Procedure: (§1) Cells were depleted of fetal calf serum (FCS) for 12 hours. They were then stimulated to proliferate by addition of ConA (10 μg/ml) for PBMC from healthy individuals and for Jurkat cells, FCS (10%) for HEK293 and A375 cells, PDGF (30 ng/ml) for NIH 3T3 cells, and EGF (30 ng/ml) for MDA-MB-231, Cells (1×10^5) were cultured in 96-well plates for 3 days in the presence or absence of inhibitors at the concentrations specified in the text. Each condition was tested in duplicate wells.
(§2) Proliferation was assessed by BrdU incorporation using a colorimetric ELISA kit (Roche, Germany). Subsequent to labeling with 10 μM BrdU, DNA was denatured and the cells were incubated with anti-BrdU-POD, prior to the addition of colorimetric substrate (TMB). The reaction product was quantified by measuring absorbance at 450 nm in an ELISA plate reader (ELx800 BIO-TEK Instruments Inc.).
Since we were not prejudiced towards any specific protein kinase, we used a biological assay for T cell proliferation. We tested our libraries for inhibition of proliferation of PBMC and Jurkat cells (Table 3). Cell proliferation was measured by BrdU uptake. […] PBMC cells were stimulated by a non-specific T cell mitogen, Concanavalin A (ConA). All of the compounds that were tested inhibited proliferation at micromolar or sub-micromolar concentrations.

Keratinocytes = experiment: Keratinocyte proliferation, BrdU uptake; assay type: cell-based; conditions: Homo sapiens, serum activated, read-out: IC50 of stimulated cells
Procedure: Primary human keratinocytes were maintained in keratinocyte growth medium (KGM): DMEM, 25% Nutrient mixture F-12 (HAM), 10% fetal bovine serum, 5 μg/ml insulin, 0.4 μg/ml hydrocortisone, 0.1 nM cholera toxin, 10 ng/ml epidermal growth factor, 1.8×10^−4 M adenine, 5 μg/ml transferrin, 2 nM T3, 100,000 U/l penicillin, […] streptomycin, 0.1 mg/ml amphotericin. The primary keratinocytes were cultured from small biopsy specimens.
as §1
as §2, with “Inc.). […]” for “Inc.).”

HEK293 = HEK293 proliferation, BrdU uptake; assay type: cell-based; conditions: Homo sapiens
Procedure: as §1, §2
(§3) To characterize the mode of action of 2 (S101) in more detail, we first examined whether 2 inhibits non-hematopoietic cell lines. We studied the effect of 2 on the growth of four cell lines: NIH 3T3 (mouse embryonic fibroblasts), A-431 (human vulval carcinoma cells), MDA-MB-468 (human breast carcinoma cells), and PANC-1 (human pancreatic carcinoma cells) (FIGS. 1A-B). We also tested the inhibitors on human keratinocytes. […]

NIH3T3 = NIH3T3 proliferation, BrdU uptake; assay type: cell-based; conditions: Mus musculus
Procedure: as §1, §2, §3

MDA-MB-231 = MDA-MB-231 proliferation, BrdU uptake; assay type: cell-based; conditions: Homo sapiens
Procedure: as §1, §2, §3

[1] = test system: NIH 3T3, A-431, MDA-MB-468, PANC-1, human keratinocytes; experiment: Growth of non-hematopoietic cell lines; assay type: cell-based; conditions: at high concentrations at which Jurkat and PBMC growth was strongly inhibited
Procedure: The inhibitor-treated cultures and controls were fixed in glutaraldehyde, 0.05% final concentration, for 10 min at room temperature. After washing, the plates were stained with 0.1% methylene blue in 0.1 M borate buffer, for 60 min at room temperature. The plates were rigorously washed to remove excess dye and dried. The dye taken up by cells was eluted in 0.1N HCl for 60 min at 37° C., and the OD of the solution was read at 620 nm. In preliminary titration experiments, linear readings were obtained for 1×10^3 to 4×10^4 cells/well.
To characterize the mode of action of 2 (S101) in more detail, we first examined whether 2 inhibits non-hematopoietic cell lines. We studied the effect of 2 on the growth of four cell lines: NIH 3T3 (mouse embryonic fibroblasts), A-431 (human vulval carcinoma cells), MDA-MB-468 (human breast carcinoma cells), and PANC-1 (human pancreatic carcinoma cells) (FIGS. 1A-B). We also tested the inhibitors on human keratinocytes. […] We also examined the effect of 2 on BrdU uptake by stimulated and non-stimulated PC-3 (human prostate cancer), HEK293 (human embryonic kidney), NIH-3T3, A375 (human malignant melanoma), and MDA-MB-231 (human breast adenocarcinoma).

OT1 (resting) cells = experiment: MLR with resting control cells, resting OT1 cells; assay type: cell-based, mouse; conditions: 0.5 μM, 72 h MLR with IL-7; no inhibitor 2459
Excerpt: (§4) The aim of this test was to determine whether 2 affects only the proliferating cells or there is a general mechanism affecting all cell numbers. For this purpose we mixed 3 cell types: […]: BALB/c, 2C and OT1; […]: CB6F1, TEA and OT2. The OT1 and OT2 are splenocytes that were isolated from OT1 and OT2 mice (Jackson Laboratories, Bar Harbor, Me.),
(§5) Thus, the ability to monitor the fate of proliferation and resting cells by FACS was enabled due to the use of the MLR described above for CD4+ and CD8+ and the addition of OT2 and OT1 splenocytes, respectively.
(§6) Proliferating cells often secrete cytokines that induce survival of neighbouring cells; since the proliferation was expected to be inhibited we added 50 ng/ml of IL-7. This concentration is sufficient to keep the cells alive, but not to induce proliferation.
Irradiated Balb splenocytes were incubated for 72 h with 2C, and OT1 splenocytes in the presence of IL-7 W/O inhibitor.
The CD4+ and CD8+ were stimulated to proliferate, whereas in the absence of specific stimuli the OT1 and OT2 cell populations were resting, and theses cells were kept alive by the administration of IL-7. […] The number of 2C and OT1 cells that were treated with 0.5 μM 2 was 286 and 1148, respectively, while the number of 2C and OT1 cells that were treated with 0.5 μM 21 (control) was 4767 and 2468, respectively. This is depicted as a bar-graph in FIG. 8C.

OT2 (resting) cells = experiment: MLR with resting control cells, resting OT2 cells; assay type: cell-based, mouse; conditions: 0.5 μM, 72 h MLR with IL-7; no inhibitor 1025
Excerpt: as §4, §5, §6
The number of TEA and OT2 cells that were treated with 0.5 μM 2 was 1452 and 826, respectively, while the number of 2C and OT1 cells that were treated with 0.5 μM 21 was 3003 and 903, respectively. This is depicted as a bar-graph in FIG. 9C.

`COc1cc(-c2nc(Nc3ccc(C)cc3)c3ccccc3n2)cc(OC)c1OC` [Compound 2, N-p-tolyl-2-(3,4,5-trimethoxyphenyl)quinazolin-4-amine] showed an IC50 (Jurkat cells; nM ± SD, read-out: IC50 Jurkat cells proliferation inhibition) of 29 ± 0.23 nM, an IC50 (Jurkat cells; Homo sapiens, Jurkat, nM ± SD, read-out: IC50 Jurkat cells proliferation inhibition) of 30 nM and an IC50 (Jurkat cells; Homo sapiens, Jurkat, non-stimulated, read-out: IC50 of non-stimulated cells) of 50 nM. It also gave an IC50 (Jurkat cells; Homo sapiens, Jurkat, stimulated, read-out: IC50 of stimulated cells) of 100 nM, an IC50 (Keratinocytes) of over 10 µM and an IC50 (HEK293; HEK293, non-stimulated, read-out: IC50 of non-stimulated cells) of about 10 µM. It also gave an IC50 (HEK293; HEK293, serum (FCS 10%) activated, read-out: IC50 of stimulated cells) of about 10 µM, an IC50 (NIH3T3; NIH3T3, PDGF (30 ng/ml) activated, read-out: IC50 of stimulated cells) of about 7 µM and an IC50 (NIH3T3; NIH3T3, non-stimulated, read-out: IC50 of non-stimulated cells) of about 3 µM. The IC50 (MDA-MB-231; MDA-MB-231, EGF (30 ng/ml) activated, read-out: IC50 of stimulated cells) was over 10 µM, the IC50 (MDA-MB-231; MDA-MB-231, non-stimulated, read-out: IC50 of non-stimulated cells) was over 10 µM and the “effect on growth of non-hematopoietic cell types” value [1] was “slightly affected”. The “number of OT1 (resting) cells” value (OT1 (resting) cells) was 1148 and the “number of OT2 (resting) cells” value (OT2 (resting) cells) was 826.
